Assay results as given in PMC11589570, “Critical assessment of LC3/GABARAP ligands used for degrader development and ligandability of LC3/GABARAP binding pockets” (Nature Communications, 2024).
Read-outs that look alike come from different tables or passages of the source.

Columns and labels:
[1] = tested on: LC3/GABARAPs (human Atg8 family); assay: FP assay with Cy5-labelled p62 LIR tracer, statements on all LC3/GABARAPs; format: binding
GABARAP = GABARAP (Homo sapiens, UniProt O95166); format: binding; parameters: CSP induced: unit not given here; settings: for CSP: GABARAP:TH152 molar ratio 1:2
GABARAP, sequence (O95166 1-116): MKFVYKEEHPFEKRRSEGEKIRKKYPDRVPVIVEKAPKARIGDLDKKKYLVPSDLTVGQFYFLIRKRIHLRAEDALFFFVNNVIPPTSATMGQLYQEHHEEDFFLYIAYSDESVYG

## CCCCCCC(Sc1nc(Cl)cc(Nc2nc(-c3ccc(C(=O)O)cc3)cs2)n1)C(=O)O (stereo not drawn) [compound 21]
[1]
  interaction with LC3/GABARAP family members in FP displacement assay: interacted with all LC3/GABARAPs
GABARAP; F77 HN resonance, molar ratio TH152:GABARAP 0.125
  CSP induced: 0.00585
GABARAP; F77 HN resonance, molar ratio TH152:GABARAP 0.25
  CSP induced: 0.01072
GABARAP; F77 HN resonance, molar ratio TH152:GABARAP 0.5
  CSP induced: 0.01977
GABARAP; F77 HN resonance, molar ratio TH152:GABARAP 1
  CSP induced: 0.04412
GABARAP; F77 HN resonance, molar ratio TH152:GABARAP 2
  CSP induced: 0.07555
GABARAP; F77 HN resonance, molar ratio TH152:GABARAP 4
  CSP induced: 0.08937
GABARAP; GABARAP
  interaction in 2D NMR titration: interacted with TH152 via the LDS binding site
GABARAP; GABARAP residue A36
  CSP: 0.025 ppm
GABARAP; GABARAP residue A39
  CSP: 0.019 ppm
GABARAP; GABARAP residue A72
  CSP: 0.005 ppm
GABARAP; GABARAP residue A75
  CSP: 0.00571 ppm
GABARAP; GABARAP residue A108
  CSP: 0.038 ppm
GABARAP; GABARAP residue D27
  CSP: 0.012 ppm
GABARAP; GABARAP residue D43
  CSP: 0.019 ppm
GABARAP; GABARAP residue D45
  CSP: 0.052 ppm
GABARAP; GABARAP residue D54
  CSP: 0.019 ppm
GABARAP; GABARAP residue D74
  CSP: 0.004 ppm
GABARAP; GABARAP residue D102
  CSP: 0.027 ppm
GABARAP; GABARAP residue D111
  CSP: 0.080 ppm
GABARAP; GABARAP residue E7, estimated
  CSP: 0.005 ppm
GABARAP; GABARAP residue E8
  CSP: 0.010 ppm
GABARAP; GABARAP residue E12
  CSP: 0.005 ppm
GABARAP; GABARAP residue E17
  CSP: 0.025 ppm
GABARAP; GABARAP residue E19
  CSP: 0.021 ppm
GABARAP; GABARAP residue E34
  CSP: 0.056 ppm
GABARAP; GABARAP residue E73
  CSP: 0.015 ppm
GABARAP; GABARAP residue E97
  CSP: 0.019 ppm
GABARAP; GABARAP residue E100
  CSP: 0.010 ppm
GABARAP; GABARAP residue E101, estimated
  CSP: 0.015 ppm
GABARAP; GABARAP residue E112
  CSP: 0.029 ppm
GABARAP; GABARAP residue F3
  CSP: 0.007 ppm
GABARAP; GABARAP residue F11
  CSP: 0.00637 ppm
GABARAP; GABARAP residue F60
  CSP: 0.060 ppm
GABARAP; GABARAP residue F62
  CSP: 0.051 ppm
GABARAP; GABARAP residue F77
  CSP: 0.076 ppm
GABARAP; GABARAP residue F78
  CSP: 0.035 ppm
GABARAP; GABARAP residue F79
  CSP: 0.034 ppm
GABARAP; GABARAP residue F103
  CSP: 0.019 ppm
GABARAP; GABARAP residue F104
  CSP: 0.027 ppm
GABARAP; GABARAP residue G18
  CSP: 0.016 ppm
GABARAP; GABARAP residue G42
  CSP: 0.033 ppm
GABARAP; GABARAP residue G58
  CSP: 0.028 ppm
GABARAP; GABARAP residue G116
  CSP: 0.011 ppm
GABARAP; GABARAP residue H9, estimated
  CSP: 0.005 ppm
GABARAP; GABARAP residue H69
  CSP: 0.044 ppm
GABARAP; GABARAP residue H98
  CSP: 0.018 ppm
GABARAP; GABARAP residue H99
  CSP: 0.035 ppm
GABARAP; GABARAP residue I21
  CSP: 0.030 ppm
GABARAP; GABARAP residue I32
  CSP: 0.077 ppm
GABARAP; GABARAP residue I41
  CSP: 0.054 ppm
GABARAP; GABARAP residue I64
  CSP: 0.020 ppm
GABARAP; GABARAP residue I68
  CSP: 0.084 ppm
GABARAP; GABARAP residue I107
  CSP: 0.011 ppm
GABARAP; GABARAP residue K2
  CSP: 0.014 ppm
GABARAP; GABARAP residue K6, estimated
  CSP: 0.005 ppm
GABARAP; GABARAP residue K13
  CSP: 0.013 ppm
GABARAP; GABARAP residue K20
  CSP: 0.009 ppm
GABARAP; GABARAP residue K23
  CSP: 0.019 ppm
GABARAP; GABARAP residue K24
  CSP: 0.039 ppm
GABARAP; GABARAP residue K35
  CSP: 0.019 ppm
GABARAP; GABARAP residue K38
  CSP: 0.015 ppm
GABARAP; GABARAP residue K46
  CSP: 0.079 ppm
GABARAP; GABARAP residue K47
  CSP: 0.091 ppm
GABARAP; GABARAP residue K48
  CSP: 0.061 ppm
GABARAP; GABARAP residue K66
  CSP: 0.014 ppm
GABARAP; GABARAP residue L44
  CSP: 0.040 ppm
GABARAP; GABARAP residue L50
  CSP: 0.088 ppm
GABARAP; GABARAP residue L55
  CSP: 0.088 ppm
GABARAP; GABARAP residue L63
  CSP: 0.085 ppm
GABARAP; GABARAP residue L70
  CSP: 0.021 ppm
GABARAP; GABARAP residue L76
  CSP: 0.043 ppm
GABARAP; GABARAP residue L105
  CSP: 0.011 ppm
GABARAP; GABARAP residue M1
  CSP: 0.016 ppm
GABARAP; GABARAP residue N81
  CSP: 0.019 ppm
GABARAP; GABARAP residue P10, estimated
  CSP: 0.005 ppm
GABARAP; GABARAP residue P26, estimated
  CSP: 0.080 ppm
GABARAP; GABARAP residue P30, estimated
  CSP: 0.060 ppm
GABARAP; GABARAP residue P37, estimated
  CSP: 0.020 ppm
GABARAP; GABARAP residue P52, estimated
  CSP: 0.030 ppm
GABARAP; GABARAP residue Q59
  CSP: 0.033 ppm
GABARAP; GABARAP residue Q96
  CSP: 0.025 ppm
GABARAP; GABARAP residue R14, estimated
  CSP: 0.005 ppm
GABARAP; GABARAP residue R15, estimated
  CSP: 0.005 ppm
GABARAP; GABARAP residue R22
  CSP: 0.015 ppm
GABARAP; GABARAP residue R28
  CSP: 0.021 ppm
GABARAP; GABARAP residue R40
  CSP: 0.023 ppm
GABARAP; GABARAP residue R65
  CSP: 0.067 ppm
GABARAP; GABARAP residue R67
  CSP: 0.024 ppm
GABARAP; GABARAP residue R71
  CSP: 0.007 ppm
GABARAP; GABARAP residue S16
  CSP: 0.016 ppm
GABARAP; GABARAP residue S53
  CSP: 0.013 ppm
GABARAP; GABARAP residue S110
  CSP: 0.015 ppm
GABARAP; GABARAP residue S113
  CSP: 0.021 ppm
GABARAP; GABARAP residue T56
  CSP: 0.032 ppm
GABARAP; GABARAP residue V29
  CSP: 0.058 ppm
GABARAP; GABARAP residue V31
  CSP: 0.082 ppm
GABARAP; GABARAP residue V33
  CSP: 0.031 ppm
GABARAP; GABARAP residue V51
  CSP: 0.069 ppm
GABARAP; GABARAP residue V57
  CSP: 0.065 ppm
GABARAP; GABARAP residue V80
  CSP: 0.037 ppm
GABARAP; GABARAP residue V114
  CSP: 0.00433 ppm
GABARAP; GABARAP residue Y25
  CSP: 0.070 ppm
GABARAP; GABARAP residue Y49
  CSP: 0.168 ppm
GABARAP; GABARAP residue Y61
  CSP: 0.053 ppm
GABARAP; GABARAP residue Y106
  CSP: 0.025 ppm
GABARAP; GABARAP residue Y109
  CSP: 0.022 ppm
GABARAP; GABARAP residue Y115
  CSP: 0.00181 ppm
GABARAP; K46 HN resonance, molar ratio TH152:GABARAP 0.125
  CSP induced: 0.0126
GABARAP; K46 HN resonance, molar ratio TH152:GABARAP 0.25
  CSP induced: 0.02165
GABARAP; K46 HN resonance, molar ratio TH152:GABARAP 0.5
  CSP induced: 0.03932
GABARAP; K46 HN resonance, molar ratio TH152:GABARAP 1
  CSP induced: 0.07004
GABARAP; K46 HN resonance, molar ratio TH152:GABARAP 2
  CSP induced: 0.07915
GABARAP; K46 HN resonance, molar ratio TH152:GABARAP 4
  CSP induced: 0.08104
GABARAP; Y25 HN resonance, molar ratio TH152:GABARAP 0.125
  CSP induced: 0.00667
GABARAP; Y25 HN resonance, molar ratio TH152:GABARAP 0.25
  CSP induced: 0.01133
GABARAP; Y25 HN resonance, molar ratio TH152:GABARAP 0.5
  CSP induced: 0.01934
GABARAP; Y25 HN resonance, molar ratio TH152:GABARAP 1
  CSP induced: 0.03193
GABARAP; Y25 HN resonance, molar ratio TH152:GABARAP 2
  CSP induced: 0.06979
GABARAP; Y25 HN resonance, molar ratio TH152:GABARAP 4
  CSP induced: 0.08466
